Experimental data from patent US6344576B1, “Phospholipid-analogous compounds” (Max-Planck-Gesellschaft zur Förderung der Wissenschaften …, priority 1997, dated 2002).

What was measured:
[1] = Use as solubilizer for substances of low solubility in water
[2] = Behaviour in water (solubility, gel formation, suitability for intravenous administration); format: physicochemical

Compound | suitability as solubilizer for substances of low solubility in water [1] | gel formation in water [2]
CCCCCCCC/C=C\CCCCCCCC(=O)OC[C@H](COP(=O)([O-])OCCC[N+](C)(C)C)OC(=O)CCCCCCC/C=C\CCCCCCCC [Example 85, 1,2-Dioleoyl-sn-glycero-3-phospho-N,N,N-trimethyl-propylammonium] | proved useful | 
CCCCCCCC/C=C\CCCCCCCCCCCCOP(=O)([O-])OCC[N+](C)(C)C [Erucylphosphocholine] |  | forms gel-like structures in water
CCCCCCCC/C=C\CCCCCCCCCCCC(=O)OC[C@@H](O)COP(=O)([O-])OCCC[N+](C)(C)C [Example 139, 1-Erucoyl-sn-glycero-3-phospho-N,N,N-trimethyl-propylammonium] | proved useful | 
1,2-Dioleoyl-sn-glycero-3-phospho-N,N-dimethyl-N-dihydroxypropyl-ethylammonium [Example 14] | proved useful | 
